Results published in US7041681B2, “Compounds as opioid receptor modulators” (Janssen Pharmaceutica N.V., priority 2002, dated 2006).

What was measured:
[1] = biological target: T1, delta opioid receptor (Rattus norvegicus, UniProt P33533); experiment: Rat Brain Delta Opioid Receptor Binding Assay; details: rat forebrain membranes, ~4 nM [3H]DPDPE, 25° C., 2.5 h; read-out: δ-opioid binding (Ki)
T1 construct: from tissue; host or cells: rat forebrain homogenate (Wistar rat)
Experimental: (§1) Male, Wistar rats (150–250 g, VAF, Charles River, Kingston, N.Y.) are killed by cervical dislocation, and their brains removed and placed immediately in ice cold Tris HCl buffer (50 mM, pH 7.4). The forebrains are separated from the remainder of the brain by a coronal transection, beginning dorsally at the colliculi and passing ventrally through the midbrain-pontine junction. After dissection, the forebrains are homogenized in Tris buffer in a Teflon®-glass homogenizer. The homogenize is diluted to a concentration of 1 g of forebrain tissue per 80 mL Tris and centrifuged at 39,000×g for 10 min. The pellet is resuspended in the same volume of Tris buffer containing 5 mM MgCl2 with several brief pulses from a Polytron homogenizer. This particulate preparation is used for the delta opioid binding assays. Following incubation with the delta selective peptide ligand ˜4 nM [^3H]DPDPE at 25° C. for 2.5 h in a 96-well plate with total volume of 1 ml, the plate contents are filtered through Wallac filtermat B sheets on a Tomtec 96-well harvester. The filters are rinsed three times with 2 mL of 10 mM HEPES (pH7.4), and dried in a microwave oven 1:45 min twice. To each sample area 2×40 μl of Betaplate Scint scintillation fluid (LKB) is added and analyzed on a LKB (Wallac) 1205 BetaPlate liquid scintillation counter.
(§2) The data are used to calculate either the % inhibition compared to control binding (when only a single concentration of test compound is evaluated) or a Ki value (when a range of concentrations is tested). % inhibition is calculated as: [(total dpm-test compound dpm dpm)/(total dpm-nonspecific dpm)]*100. Kd and Ki values were calculated using GraphPad PRISM data analysis program.

[2] = biological target: T2, mu opioid receptor (Rattus norvegicus, UniProt P33535); experiment: Rat Brain mu Opioid Receptor Binding Assay; details: rat forebrain membranes, ~0.8 nM [3H]DAMGO, 25° C., 2.5 h; read-out: μ-opioid binding (Ki)
T2 construct: from tissue; host or cells: rat forebrain homogenate (Wistar rat)
Experimental: as §1, with “mu-opioid” for “delta opioid”, “mu” for “delta”, “˜0.8” for “˜4”, “[^3H]DAMGO” for “[^3H]DPDPE”, “total” for “total volume of”
as §2

T1 sequence (P33533 whole entry): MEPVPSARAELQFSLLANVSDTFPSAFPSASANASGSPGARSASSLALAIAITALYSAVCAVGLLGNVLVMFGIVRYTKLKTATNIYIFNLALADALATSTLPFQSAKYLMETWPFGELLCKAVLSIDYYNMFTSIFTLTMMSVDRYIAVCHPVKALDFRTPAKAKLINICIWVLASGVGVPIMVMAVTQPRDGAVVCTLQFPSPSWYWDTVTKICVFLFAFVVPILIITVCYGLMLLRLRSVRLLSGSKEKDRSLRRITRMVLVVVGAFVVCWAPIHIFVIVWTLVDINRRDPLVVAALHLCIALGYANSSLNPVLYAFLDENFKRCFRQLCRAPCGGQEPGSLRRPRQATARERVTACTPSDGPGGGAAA
T2 sequence (P33535 whole entry): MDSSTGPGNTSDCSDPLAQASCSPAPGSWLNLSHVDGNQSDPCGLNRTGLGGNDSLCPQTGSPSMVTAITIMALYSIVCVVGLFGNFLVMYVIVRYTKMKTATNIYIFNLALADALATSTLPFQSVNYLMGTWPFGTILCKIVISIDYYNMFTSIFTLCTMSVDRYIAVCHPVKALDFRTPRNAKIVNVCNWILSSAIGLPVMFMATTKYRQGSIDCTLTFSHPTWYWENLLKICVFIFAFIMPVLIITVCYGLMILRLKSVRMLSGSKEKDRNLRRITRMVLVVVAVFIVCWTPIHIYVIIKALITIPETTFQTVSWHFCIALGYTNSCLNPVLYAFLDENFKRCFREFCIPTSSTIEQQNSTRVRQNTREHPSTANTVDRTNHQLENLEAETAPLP

| SMILES | Ki [1] [nM] | Ki [2] [nM] |
| --- | --- | --- |
| CS(=O)(=O)Nc1ccc(CC(N)C(=O)N2Cc3ccccc3CC2c2nc(-c3ccccc3)c[nH]2)cc1 (stereo not shown) [Cmpd 114] | 342 | 356 |
| CNC(=O)c1ccc(C[C@H](N)C(=O)N2CCCC[C@H]2c2nc(-c3ccccc3)c[nH]2)cc1 [Cmpd 21] | 33.9 | 0.22 |
| Cc1cc(C(N)=O)cc(C)c1C[C@H](N)C(=O)N1Cc2ccccc2C[C@H]1c1nc(-c2ccccc2)c[nH]1 [Cmpd 105] | 0.06 | 1.44 |
| COc1cc(C)c(C[C@H](N)C(=O)N2CCCC[C@H]2c2nc(-c3ccccc3)c[nH]2)c(C)c1 [Cmpd 27] | 1000 | 8.56 |
| Cc1cc(C(N)=O)cc(C)c1CC(N)C(=O)N1CCCCC1c1nc(-c2ccccc2)c[nH]1 (stereo not shown) [Cmpd 6] | 13.9 | 0.13 |
| CNC(Cc1ccc(O)cc1)C(=O)N1Cc2ccccc2CC1c1nc(-c2ccccc2)c(C)[nH]1 (stereo not shown) [Cmpd 155] | 0.44 | 23.2 |
| Cc1cc(O)cc(C)c1C[C@H](N)C(=O)N1Cc2ccccc2C[C@H]1c1nc(-c2ccccc2)c(C)[nH]1 [Cmpd 149] | 0.8 | 3 |
| O=C([C@H](Cc1ccc(O)cc1)NCc1ccccc1)N1Cc2ccccc2C[C@@H]1c1nc(-c2ccccc2)c[nH]1 [Cmpd 134] | 10000 | 329 |
| N[C@@H](Cc1cccc(O)c1)C(=O)N1Cc2ccccc2C[C@H]1c1nc(-c2ccccc2)c[nH]1 [Cmpd 161] | 133 | 480 |
| Cc1cc(O)cc(C)c1C[C@H](N)C(=O)N1CCCC[C@@H]1c1nc(-c2ccccc2)c[nH]1 [Cmpd 158] | 5.43 | 0.15 |
| CC(N)(Cc1ccc(OCc2ccccc2)cc1)C(=O)N1CCCCC1c1nc(-c2ccccc2)c[nH]1 (stereo not shown) [Cmpd 26] | 628 | 87 |
| COc1ccc(CC(N)C(=O)N2Cc3ccccc3CC2c2nc(-c3ccccc3)c(C)[nH]2)cc1 (stereo not shown) [Cmpd 154] | 10000 | 10000 |
| Cc1cc(O)cc(C)c1C[C@H](NC=O)C(=O)N1CCCC[C@H]1c1nc(-c2ccccc2)c[nH]1 [Cmpd 37] | 5230 | 13.3 |
| N[C@@H](Cc1ccc(C(=O)Nc2ccccc2)cc1)C(=O)N1Cc2ccccc2C[C@H]1c1nc(-c2ccccc2)c[nH]1 [Cmpd 111] | 103 | 293 |
| N[C@@H](Cc1ccc(C(=O)Nc2ccccc2)cc1)C(=O)N1CCCC[C@H]1c1nc(-c2ccccc2)c[nH]1 [Cmpd 13] | 656 | 27.7 |
| Nc1ccc(CC(N)C(=O)N2CCCCC2c2nc(-c3ccccc3)c[nH]2)cc1 (stereo not shown) [Cmpd 30] | 1020 | 57.2 |
| Cc1cc(O)cc(C)c1CC(N)C(=O)N1CCCCC1c1nc(-c2ccccc2)c[nH]1 (stereo not shown) [Cmpd 34] | 1.86 | 0.05 |
| N[C@@H](Cc1ccc(O)cc1)C(=O)N1CCCC[C@H]1c1cccc(-c2ccccc2)c1 [Cmpd 32] | 5900 | 541 |
| NC(=O)c1ccc(CC(N)C(=O)N2Cc3ccccc3CC2c2nc(-c3ccccc3)c[nH]2)cc1 (stereo not shown) [Cmpd 115] | 1.3 | 23.2 |
| CN(C)C(=O)c1ccc(C[C@H](N)C(=O)N2Cc3ccccc3C[C@H]2c2nc(-c3ccccc3)c[nH]2)cc1 [Cmpd 103] | 578 | 900 |
| CN1CCN(C(=O)c2ccc(C[C@H](N)C(=O)N3Cc4ccccc4C[C@H]3c3nc(-c4ccccc4)c[nH]3)cc2)CC1 [Cmpd 102] | 5350 | 1240 |
| N#Cc1cccc(C[C@H](N)C(=O)N2CCCC[C@H]2c2nc(-c3ccccc3)c[nH]2)c1 [Cmpd 8] | 10000 | 207 |
| N[C@@H](Cc1ccc(O)cc1)C(=O)N1CCCC[C@@H]1c1cccc(-c2ccccc2)c1 [Cmpd 31] | 10000 | 565 |
| NC(Cc1ccc(C(=O)NCCO)cc1)C(=O)N1Cc2ccccc2CC1c1nc(-c2ccccc2)c[nH]1 (stereo not shown) [Cmpd 112] | 43.7 | 92.3 |
| Cc1cc(O)cc(C)c1CC(N)C(=O)N1Cc2ccccc2CC1c1nc(-c2ccccc2)c[nH]1 (stereo not shown) [Cmpd 131] | 0.09 | 0.3 |

| SMILES | Ki [1] [nM] | Ki [2] [nM] |
| --- | --- | --- |
| CNC(Cc1ccc(O)cc1)C(=O)N1Cc2ccccc2CC1c1nc(-c2ccccc2)c[nH]1 (stereo not shown) [Cmpd 145] | 1.18 | 59.1 |
| N[C@@H](Cc1cc(F)c(O)c(F)c1)C(=O)N1CCCC[C@H]1c1nc(-c2ccccc2)c[nH]1 [Cmpd 24] | 5660 | 9.27 |
| NC(Cc1ccc(C(=O)NCCO)cc1)C(=O)N1CCCCC1c1nc(-c2ccccc2)c[nH]1 (stereo not shown) [Cmpd 14] | 5140 | 9.3 |
| CC(N)(Cc1ccc(O)cc1)C(=O)N1Cc2ccccc2CC1c1nc(-c2ccccc2)c[nH]1 (stereo not shown) [Cmpd 121] | 1.32 | 38 |
| CC(=O)Nc1ccc(C[C@H](N)C(=O)N2Cc3ccccc3C[C@H]2c2nc(-c3ccccc3)c(C)[nH]2)cc1 [Cmpd 141] | 34 | 207 |
| NC(=O)c1cccc(CC(N)C(=O)N2CCCCC2c2nc(-c3ccccc3)c[nH]2)c1 (stereo not shown) [Cmpd 7] | 6070 | 88.3 |
| N[C@@H](Cc1ccc(O)c([N+](=O)[O-])c1)C(=O)N1Cc2ccccc2C[C@H]1c1nc(-c2ccccc2)c[nH]1 [Cmpd 129] | 50000 | 25700 |
| N[C@@H](Cc1ccc(O)cc1)C(=O)N1CCCC[C@H]1c1nc(-c2ccccc2)no1 [Cmpd 20] | 10000 | 231 |
| N[C@@H](Cc1ccc(Cl)cc1)C(=O)N1Cc2ccccc2C[C@H]1c1nc(-c2ccccc2)c[nH]1 [Cmpd 144] | 1130 | 5260 |
| N[C@@H](Cc1ccc(C(=O)O)cc1)C(=O)N1CCCC[C@H]1c1nc(-c2ccccc2)c[nH]1 [Cmpd 9] | 606 | 26.8 |
| Nc1cc(C[C@H](N)C(=O)N2CCCC[C@H]2c2nc(-c3ccccc3)c[nH]2)ccc1O [Cmpd 16] | 5330 | 115 |
| CC(=O)c1ccc(C[C@H](N)C(=O)N2Cc3ccccc3C[C@H]2c2nc(-c3ccccc3)c[nH]2)cc1 [Cmpd 110] | 30.4 | 413 |
| Cc1[nH]c([C@@H]2Cc3ccccc3CN2C(=O)[C@@H](N)Cc2ccc([N+](=O)[O-])cc2)nc1-c1ccccc1 [Cmpd 120] | 674 | 1350 |
| N#Cc1ccc(CC(N)C(=O)N2Cc3ccccc3CC2c2nc(-c3ccccc3)c[nH]2)cc1 (stereo not shown) [Cmpd 160] | 752 | 1340 |
| Cc1[nH]c([C@@H]2Cc3ccccc3CN2C(=O)[C@@H](N)Cc2ccc(N)cc2)nc1-c1ccccc1 [Cmpd 142] | 93 | 857 |
| N[C@@H](Cc1ccc(O)c([N+](=O)[O-])c1)C(=O)N1CCCC[C@H]1c1nc(-c2ccccc2)c[nH]1 [Cmpd 17] | 5120 | 320 |
| COc1ccc(C[C@H](N)C(=O)N2Cc3ccccc3C[C@H]2c2nc(-c3ccccc3)c(C)[nH]2)cc1 [Cmpd 156] | 28 | 179 |
| CCN[C@@H](Cc1ccc(O)cc1)C(=O)N1Cc2ccccc2C[C@@H]1c1nc(-c2ccccc2)c[nH]1 [Cmpd 136] | 116 | 229 |
| CC(C)NC(Cc1ccc(O)cc1)C(=O)N1Cc2ccccc2CC1c1nc(-c2ccccc2)c[nH]1 (stereo not shown) [Cmpd 138] | 397 | 10000 |
| N[C@@H](Cc1cccc(O)c1)C(=O)N1CCCC[C@H]1c1nc(-c2ccccc2)c[nH]1 [Cmpd 22] | 433 | 16 |
| Cc1[nH]c([C@@H]2Cc3ccccc3CN2C(=O)[C@@H](N)Cc2ccc(C(N)=O)cc2)nc1-c1ccccc1 [Cmpd 118] | 0.73 | 23.1 |
| CC(=O)c1ccc(C[C@H](N)C(=O)N2CCCC[C@H]2c2nc(-c3ccccc3)c[nH]2)cc1 [Cmpd 10] | 933 | 23.6 |
| CCN[C@@H](Cc1ccc(O)cc1)C(=O)N1Cc2ccccc2C[C@H]1c1nc(-c2ccccc2)c[nH]1 [Cmpd 137] | 3.89 | 368 |
| CN[C@@H](Cc1ccc(OC(=O)C(C)(C)C)cc1)C(=O)N1Cc2ccccc2C[C@H]1c1nc(-c2ccccc2)c[nH]1 [Cmpd 128] | 5.2 | 213 |
| N#Cc1ccc(C[C@H](N)C(=O)N2CCCC[C@H]2c2nc(-c3ccccc3)c[nH]2)cc1 [Cmpd 35] | 476 | 869 |
